Data: PMC9499506, “TNF-α and IL-1β Modulate Blood-Brain Barrier Permeability and Decrease Amyloid-β Peptide Efflux in a Human Blood-Brain Barrier Model” (International Journal of Molecular Sciences, 2022)

Legend:
BLECs [1] = assay: RT-qPCR of junctional protein mRNA in BLECs; format: cell-based, human; conditions: normalized to cyclophilin A, 10 ng·mL^−1, 24 h; for VE-cadherin mRNA level versus control: ΔΔCt
Experimental: (§1) Each condition was studied in triplicate.
BLECs were washed twice with cold RH buffer, then lysed using RLT lysis buffer (Qiagen, Les Ulis, France). The cell lysates were extracted according to the manufacturer’s instructions “Qiagen RNeasy Mini kit”. Briefly, a volume of cell lysates was mixed with a volume of 70% (v/v) ethanol and placed in a column (Rneasy Mini kit, Qiagen, Les Ulis, France). A first centrifugation was performed to adsorb the RNAs to the column. A series of two rinses with buffer RW1 and a centrifugation (10.000 rpm, 30 s) were performed. Samples were treated with DNase in its RDD buffer for 20 min. Then, another succession of rinses (one with buffer RW1 and two with buffer RPE) and centrifugation (10.000 rpm, 30 s) were performed. Finally, water (RNAse Free) was added to the column to elute the RNAs by centrifugation (13.000 rpm, 2 min at 20 °C). The amount of extracted mRNAs was assayed by spectrophotometry (Synergy H1, Biotek, Colmar, France). Absorbances at 280 nm (proteins) and 260 nm (nucleic acids) were performed. The mRNA concentration was determined from the Beer-Lambert law and the mRNA purity of the sample was assessed with the Absorbance 260 nm/Absorbance 280 nm ratio. This ratio must be close to 2.1 to consider the sample to be with high purity. The mRNA samples were then stored at −80 °C.
Reverse transcription (RT) was performed on the samples containing the extracted mRNAs to obtain cDNAs. A total of 250 ng of mRNA was reverse-transcribed using iScriptTM reverse Transcription Supermix 5X (Biorad, Munich, Germany), containing reverse transcriptase, RNAse inhibitors, RNAse H, dNTPs (nucleoside triphosphates), oligonucleotides (dTs) (deoxy-thymine repeats) and random primers (hexamers of dNTPs randomly binding to mRNAs) and MgCl2). To each microtube, a volume of water (RNAse free) was added to obtain a final volume of 20 µL, then a reverse transcription cycle was performed in the thermal cycler (MJ Research): 5 min at 25 °C (hybridization), 30 min at 42 °C (reverse transcription) and 5 min at 85 °C (reverse transcription inactivation). The cDNA samples were then stored at −20 °C. For each reverse transcription and for each condition, an internal control was performed by adding iScriptTM No-RT control Supermix 5X (Biorad, Munich, Germany), a solution without the reverse transcriptase enzyme (NRT), instead of iScriptTM reverse Transcription Supermix 5X.
The qPCR was performed on a 96-well plate where each sample was deposited in triplicate. To perform qPCR, human-specific primer pairs were drawn for each gene of interest (Table 2).
An efficiency test and a melting curve were performed for each pair of primers used using the CFX Manager software (Biorad, Munich, Germany) allowing for the specificity and efficiency of the primers to be checked. A qPCR of the cDNAs obtained by RT-PCR was performed using the specific primers and a SsoFast^TM Evagreen SuperMix (Biorad, Munich, Germany) containing DNA polymerase, its cofactors, dNTPs and Evagreen® (a fluorochrome that binds to DNA during elongation). The amplification was carried out for 40 cycles with a hybridization temperature of 60 °C. The reaction was performed in a CFX96 Real-Time System thermal cycler (Biorad, Munich, Germany). Gene expression levels were assessed using the ΔΔCt method and normalized to a reference gene, cyclophilin A. The data were then plotted as a percentage against the control condition. Two controls were performed per primer pair: an NRT and a primer hybridization control (NTC), where the sample containing the cDNAs is replaced with water.

BLECs [2] = assay: Effect of cytokines on Aβ1–40Cy5 transcytosis quotient across BLECs; format: cell-based, human; conditions: cytokine 10 ng·mL^−1 basolateral, 24 h; then 30 min transport at 37 °C; compared to control
Experimental: As TNF-α and IL-1β modulated the protein expression levels of LRP1, BCRP and PICALM (Figure 4), we investigated the effect of these cytokines on the transport of Aβ peptide across the BBB. After 24 h of treatment with proinflammatory cytokines, the apical-to-basolateral (influx) and basolateral-to-apical (efflux) Aβ1–40Cy5 peptide transports across the BLECs were assessed in the presence of FITC-inulin. The Aβ1–40 peptide was used in all experiments, as it is the most abundant amyloid peptide found on cerebral blood vessels. FITC-inulin was used to determine the nonspecific transcytosis quotient (Figure 5A). Indeed, unlike Aβ peptide, FITC-inulin is not actively cleared at the BBB and acts as a reference marker of paracellular permeability, thus as previously reported.
as §1
After proinflammatory cytokine treatments, the influx (apical-to-basolateral) and the efflux (basolateral-to-apical) transport of Aβ1–40 peptides across BLECs were investigated as previously described. Briefly, for influx studies, inserts with BLECs were transferred to new 12-well plates containing 1.5 mL of RH–HSA 0.1% (the receiver solution) per well. In the insert, 0.5 mL of RH-HSA 0.1% supplemented with 10 nM Aβ1–40Cy5 peptide were added (the donor solution). For efflux studies, inserts with BLECs were transferred to new 12-well plates, this time containing 1.5 mL of RH-has 0.1% with 10 nM fluorescent Aβ1–40Cy5 (the donor solution) peptide, then 0.5 mL of RH-HSA 0.1% (the receiver solution) was added in the insert. […] The BBB integrity was determined by measuring the endothelial permeability of a radioactive integrity marker, ^14C-sucrose, using the same method of calculation as described in Section 4.4. […] At the end of the experiment, aliquots of the receiver and donor solutions were collected, and the fluorescence compounds (Aβ1–40Cy5 peptide and FITC-inulin) were quantified with a spectrofluorimeter (Synergy H1, Biotek, Colmar, France). The radioactivity of ^14C-saccharose was measured using a scintillation counter (Hidex 300 SL, Hidex, Turku, Finland). The apparent permeability coefficients (cm.sec^−1) of Aβ1–40Cy5 peptide and FITC-inulin were calculated as previously described. Once influx and efflux Papp were determined for each molecule, the specific transport of Aβ1–40Cy5 across the BLECs in influx and efflux directions were identified by calculating the transcytosis quotient of Aβ1–40Cy5 using the following formulas: “influx transcytosis quotient of Aβ1–40Cy5 = (influx Aβ1–40Cy5 Papp)/(influx FITC-inulin Papp)” or “efflux transcytosis quotient of Aβ1–40Cy5 = (efflux Aβ1–40Cy5 Papp)/(efflux FITC-inulin Papp)”. For each filter, the mass balance was determined as described in Section 4.4. […]

Substance | decrease of claudin-3 mRNA level compared to control (BLECs [1]) | decrease of occludin mRNA level compared to control (BLECs [1]) | decrease of tricellulin mRNA level compared to control (BLECs [1]) | increase of claudin-5 mRNA expression compared to control (BLECs [1]) | VE-cadherin mRNA level versus control (BLECs [1]) | apical-to-basolateral transcytosis quotient (specific influx) of Aβ1–40Cy5 peptide (BLECs [2]) | reduction of basolateral-to-apical transcytosis quotient (specific efflux) of Aβ1–40Cy5 peptide (BLECs [2]) | decrease of ZO-1 mRNA level compared to control (BLECs [1])
tumor necrosis factor-α [TNF-α] | 61.8% | 66.3% | 68.1% | 139.4% | not significantly different | not modified | 26.9% | –
interleukin-1β [IL-1β] | 81.3% | 64.0% | 62.8% | 48.1% | lower | not modified | 25.9% | 48.1%
